Laboratory results as given in patent publication US20220167618A1, “PESTICIDALLY ACTIVE AZOLE-AMIDE COMPOUNDS” (SYNGENTA CROP PROTECTION AG, priority 2019, published 2022).

Experiments:
Type in all cases: in vivo
[1] = system: Diabrotica balteata (Corn Root Worm); assay: Example B1: Diabrotica balteata (corn root worm), sprayed maize sprouts; settings: 96 h, application rate 200 ppm, L2 larvae, 4 days after infestation, read-out: control in at least one of the two categories (mortality or growth inhibition)
Protocol: Example B1: Diabrotica balteata (Corn Root Worm)
Maize sprouts placed onto an agar layer in 24-well microtiter plates were treated with aqueous test solutions prepared from 10′000 ppm DMSO stock solutions by spraying. After drying, the plates were infested with L2 larvae (6 to 10 per well). The samples were assessed for mortality and growth inhibition in comparison to untreated samples 4 days after infestation.

[2] = system: Chilo suppressalis (Striped Rice Stemborer); assay: Example B4: Chilo suppressalis (striped rice stemborer), artificial diet; settings: 144 h, application rate 200 ppm, L2 larvae, 6 days after infestation, read-out: control in at least one of the three categories (mortality, anti-feedant or growth inhibition)
Protocol: Example B4: Chilo suppressalis (Striped Rice Stemborer)
24-well microtiter plates with artificial diet were treated with aqueous test solutions prepared from 10′000 ppm DMSO stock solutions by pipetting. After drying, the plates were infested with L2 larvae (6-8 per well). The samples were assessed for mortality, anti-feeding effect, and growth inhibition in comparison to untreated samples 6 days after infestation. Control of Chilo suppressalis by a test sample is given when at least one of the categories mortality, anti-feedant effect, and growth inhibition is higher than the untreated sample.

[3] = system: Plutella xylostella (Diamond Back Moth); assay: Example B5: Plutella xylostella (diamond back moth), artificial diet, 24-well; settings: 192 h, application rate 200 ppm, eggs, 8 days after infestation, read-out: control in at least one of the two categories (mortality or growth inhibition)
Protocol: Example B5: Plutella xylostella (Diamond Back Moth)
24-well microtiter plates with artificial diet were treated with aqueous test solutions prepared from 10′000 ppm DMSO stock solutions by pipetting. After drying, Plutella eggs were pipetted through a plastic stencil onto a gel blotting paper and the plate was closed with it. The samples were assessed for mortality and growth inhibition in comparison to untreated samples 8 days after infestation.

[4] = system: Spodoptera littoralis (Egyptian Cotton Leaf Worm); assay: Example B9: Spodoptera littoralis (Egyptian cotton leaf worm), sprayed cotton leaf discs; settings: foliar, 72 h, application rate 200 ppm, L1 larvae, 3 days after infestation, read-out: control in at least one of the three categories (mortality, anto-feedant or growth inhibition)
[5] = system: Plutella xylostella (Diamondback Moth); assay: Example B13: Plutella xylostella (diamondback moth), artificial diet, 96-well; settings: 216 h, application rate 500 ppm, eggs/L1 larvae, 9 days after infestation
Protocol: Example B13: Plutella xylostella (Diamondback Moth)
96-well microtiter plates containing artificial diet were treated with aqueous test solutions, prepared from 10′000 ppm DMSO stock solutions, by a liquid handling robot. After drying, eggs (˜30 per well) were infested onto a netted lid which was suspended above the diet. The eggs hatch and L1 larvae move down to the diet. The samples were assessed for mortality 9 days after infestation.

CC(NC(=O)c1cc(C2CC2)cc(C(F)(F)F)c1)c1nc(Br)nn1-c1ncc(OCC(F)(F)F)cn1 (stereo not shown) [Compound P5, N-[1-[5-bromo-2-[5-(2,2,2-trifluoroethoxy)pyrimidin-2-yl]-1,2,4-triazol-3-yl]ethyl]-3-cyclopropyl-5-(trifluoromethyl)benzamide]
≥ 80%: percent control (mortality or growth inhibition) at 200 ppm [1] | percent control (mortality, anti-feedant or growth inhibition) at 200 ppm [2] | percent control (mortality or growth inhibition) at 200 ppm [3] | percent control (mortality, anti-feedant or growth inhibition) at 200 ppm [4] | mortality at 500 ppm [5]

CC(NC(=O)c1cc(C2CC2(F)F)cc(C(F)(F)F)c1)c1nc(Br)nn1-c1ccc(OCC(F)F)cn1 (stereo not shown) [Compound P22, N-[1-[5-bromo-2-[5-(2,2-difluoroethoxy)-2-pyridyl]-1,2,4-triazol-3-yl]ethyl]-3-(2,2-difluorocyclopropyl)-5-(trifluoromethyl)benzamide]
≥ 80%: percent control (mortality, anti-feedant or growth inhibition) at 200 ppm [2] | percent control (mortality or growth inhibition) at 200 ppm [3] | percent control (mortality, anti-feedant or growth inhibition) at 200 ppm [4] | mortality at 500 ppm [5]

CC(NC(=O)c1cc(C(F)(F)F)cc(S(=O)(=O)C(F)(F)F)c1)c1nc(Br)nn1-c1ncc(OCC(F)F)cn1 (stereo not shown) [Compound P24, N-[1-[5-bromo-2-[5-(2,2-difluoroethoxy)pyrimidin-2-yl]-1,2,4-triazol-3-yl]ethyl]-3-(trifluoromethyl)-5-(trifluoromethylsulfonyl) benzamide]
≥ 80%: percent control (mortality, anti-feedant or growth inhibition) at 200 ppm [2] | percent control (mortality or growth inhibition) at 200 ppm [3] | percent control (mortality, anti-feedant or growth inhibition) at 200 ppm [4] | mortality at 500 ppm [5]

CC(NC(=O)c1cc(C2CC2)cc(C(F)(F)F)c1)c1nc(Br)nn1-c1ccc(OCC(F)F)cn1 (stereo not shown) [Compound P27, N-[1-[5-bromo-2-[5-(2,2-difluoroethoxy)-2-pyridyl]-1,2,4-triazol-3-yl]ethyl]-3-cyclopropyl-5-(trifluoromethyl)benzamide]
≥ 80%: percent control (mortality, anti-feedant or growth inhibition) at 200 ppm [2] | percent control (mortality or growth inhibition) at 200 ppm [3] | mortality at 500 ppm [5]

CC(NC(=O)c1cc(C(F)(F)F)cc(C(C)(C)C#N)c1)c1nc(Br)nn1-c1ncc(OCC(F)F)cn1 (stereo not shown) [Compound P38, N-[1-[5-bromo-2-[5-(2,2-difluoroethoxy)pyrimidin-2-yl]-1,2,4-triazol-3-yl]ethyl]-3-(1-cyano-1-methyl-ethyl)-5-(trifluoromethyl)benzamide]
≥ 80%: percent control (mortality or growth inhibition) at 200 ppm [1] | percent control (mortality, anti-feedant or growth inhibition) at 200 ppm [2] | percent control (mortality or growth inhibition) at 200 ppm [3] | percent control (mortality, anti-feedant or growth inhibition) at 200 ppm [4]

CC(NC(=O)c1cc(C(F)(F)F)cc(C(C)(C)C#N)c1)c1nc(Br)nn1-c1ncc(OCC(F)(F)F)cn1 (stereo not shown) [Compound P39, N-[1-[5-bromo-2-[5-(2,2,2-trifluoroethoxy)pyrimidin-2-yl]-1,2,4-triazol-3-yl]ethyl]-3-(1-cyano-1-methyl-ethyl)-5-(trifluoromethyl)benzamide]
≥ 80%: percent control (mortality or growth inhibition) at 200 ppm [1] | percent control (mortality, anti-feedant or growth inhibition) at 200 ppm [2] | percent control (mortality or growth inhibition) at 200 ppm [3] | percent control (mortality, anti-feedant or growth inhibition) at 200 ppm [4]

CC(NC(=O)c1cc(C(F)(F)F)cc(C(C)(C)C#N)c1)c1nc(Br)nn1-c1ccc(OCC(F)F)cn1 (stereo not shown) [Compound P40, N-[1-[5-bromo-2-[5-(2,2-difluoroethoxy)-2-pyridyl]-1,2,4-triazol-3-yl]ethyl]-3-(1-cyano-1-methyl-ethyl)-5-(trifluoromethyl)benzamide]
≥ 80%: percent control (mortality, anti-feedant or growth inhibition) at 200 ppm [2] | percent control (mortality or growth inhibition) at 200 ppm [3] | percent control (mortality, anti-feedant or growth inhibition) at 200 ppm [4] | mortality at 500 ppm [5]
